Laboratory results: patent publication US20130266668A1, “USE OF HEMOGLOBIN EFFECTORS TO INCREASE THE BIOAVAILABILITY OF THERAPEUTIC GASES” (VIRGINIA COMMONWEALTH UNIVERSITY, priority 2010, published 2013)
“And” between values parts separate entries of the source, which are not always exact repeats. Equal values may be shown once. Each block holds one compound with its values, some of them ahead of it.

Key:
[1] = biological target: T1, erythswHb/HBOC-1 solution mixture (UniProt P01965+P01966+P02067+P02070); assay: Effect of RSR-13 on oxygen affinity of erythswHb/HBOC-1 solution mixtures; type: biochemical, swine; conditions: 2 mM RSR-13
T1 construct: composed of either 15% or 20% hct whole blood in 13.4 g/dL of HBOC-1; is a highly purified bovine Hb that is crosslinked with gluteraldehyde; tissue BioPure Inc (HBOC-1 part); host or cells: swine whole blood (hct 15 or 20%) mixed with HBOC-1 (13.4 g/dL) at 75:25 or 50:50 by volume
T1 sequence (P01965 whole entry): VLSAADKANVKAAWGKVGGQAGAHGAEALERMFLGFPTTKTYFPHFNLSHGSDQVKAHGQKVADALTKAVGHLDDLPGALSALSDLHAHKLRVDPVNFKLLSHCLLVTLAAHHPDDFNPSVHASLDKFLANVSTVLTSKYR
T1 sequence (P02067 whole entry): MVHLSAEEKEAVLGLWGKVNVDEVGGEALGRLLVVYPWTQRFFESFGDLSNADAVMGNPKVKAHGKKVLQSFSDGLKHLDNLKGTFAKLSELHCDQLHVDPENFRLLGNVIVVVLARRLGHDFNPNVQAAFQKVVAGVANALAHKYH
T1 sequence (P01966 2-142 limits assumed): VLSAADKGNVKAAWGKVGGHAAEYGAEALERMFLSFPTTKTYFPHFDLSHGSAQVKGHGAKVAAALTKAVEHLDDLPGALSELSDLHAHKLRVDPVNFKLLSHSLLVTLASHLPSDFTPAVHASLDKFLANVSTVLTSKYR
T1 sequence (P02070 whole entry): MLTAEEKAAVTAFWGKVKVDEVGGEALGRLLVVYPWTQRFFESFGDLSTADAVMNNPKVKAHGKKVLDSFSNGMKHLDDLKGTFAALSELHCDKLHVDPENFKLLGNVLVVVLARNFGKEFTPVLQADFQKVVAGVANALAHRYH
Description: (§1) The effect of RSR-13 on the oxygen affinity of erythswHb and erythhHb, and HBOC-1 was determined using multiple-point tonometer. RSR-13 (1, 2 or 5 mM) was incubated with blood from swine or human (hct ˜30%) or HBOC-1 (13.4 g/dL) for 30 minutes. The Hb-compound mixture was then further incubated in IL 237 tonometers (Instrumentation Laboratories, Inc. Lexington, Mass.) for 5 minutes at 37° C. to equilibrate at oxygen tensions of 6 mmHg or 20 mmHg or 40 mmHg or 60 mmHg. Following, the sample is aspirated into an IL 1420 Automated Blood Gas Analyzer and an IL 682 Co-oximeter (Instrumentation Laboratories) or ABL 700 Blood Gas Analyzer (Radiometer, Westlake, Ohio) to determine the pH, pCO2, pO2, and Hb oxygen saturation values (SO2). The measured values of pO2 and SO2 were then subjected to a non-linear regression analysis using the program Scientist to estimate the P50 and Hill coefficient values (cooperativity of oxygen binding; n50).
RSR-13 (2 mM) was incubated with erythswHb (hct of 15 or 20%)/HBOC-1 (13.4 g/dL) solution mixture in a volume ratio of 75:25 and 50:50 for 30 minutes. The Hb-compound mixture was then analyzed for their P50 and Hill coefficient values as described above.

[2] = biological target: T2, COHb in HBOC-1 (13.4 g/dL) (Bos taurus, UniProt P01966+P02070); assay: Effect of RSR-13 on COHb levels of HBOC-1; type: biochemical, bovine; conditions: HBOC-1 13.4 g/dL exposed to CO to ~51% COHb (control 51.1), 2 mM RSR-13, after 30 minutes
T2 construct: is a highly purified bovine Hb that is crosslinked with gluteraldehyde; purchased BioPure Inc
T2 sequence (P01966 2-142 limits assumed): as the sequence (P01966 2-142 limits assumed) above
T2 sequence (P02070 whole entry): as the sequence (P02070 whole entry) above
Description: (§2) To determine whether RSR-13 will reduce COHb levels in swine blood or HBOC-1, we incubated HBOC-1 (13.4 g/dL) that has been exposed to CO to form ˜51% COHb, and swine whole blood (hct of 30%) that has been exposed to CO to form ˜52 or 10% COHb concentrations with 2 mM RSR-13. RSR-13 was able to reduce the amount of COHb by about 16% in the swine blood in the experiment starting with either 10% or 52% COHb level, and about 14% in the HBOC-1.

whole blood = biological target: T3, whole blood (Homo sapiens, UniProt P68871+P69905); conditions: Phase I studies, doses of 75-100 mg/kg; cited from earlier work
T3 construct: host or cells: whole blood of dosed subjects
T3 sequence (P69905 2-142 limits assumed): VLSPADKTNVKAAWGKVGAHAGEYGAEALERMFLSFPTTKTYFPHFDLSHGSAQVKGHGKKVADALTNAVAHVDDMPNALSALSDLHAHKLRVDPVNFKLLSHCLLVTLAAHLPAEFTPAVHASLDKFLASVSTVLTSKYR
T3 sequence (P68871 2-147 limits assumed): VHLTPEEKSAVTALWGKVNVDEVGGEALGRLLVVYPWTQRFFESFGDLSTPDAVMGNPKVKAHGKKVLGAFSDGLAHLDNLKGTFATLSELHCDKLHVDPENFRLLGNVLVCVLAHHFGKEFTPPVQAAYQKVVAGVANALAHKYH

[3] = biological target: T4, COHb in swine whole blood (hct of 30%) (Sus scrofa, UniProt P01965+P02067); assay: Effect of RSR-13 on COHb levels of swine blood; type: biochemical; conditions: 2 mM RSR-13, after 30 minutes
T4 construct: from tissue; host or cells: swine whole blood (hct 30%, 20% or 15%)
T4 sequence (P01965 whole entry): as the sequence (P01965 whole entry) above
T4 sequence (P02067 2-147 limits assumed): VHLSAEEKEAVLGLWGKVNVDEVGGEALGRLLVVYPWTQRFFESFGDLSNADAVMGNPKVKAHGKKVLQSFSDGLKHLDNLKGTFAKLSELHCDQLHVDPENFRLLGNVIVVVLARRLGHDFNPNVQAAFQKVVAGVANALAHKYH
Description: as §2

[4] = biological target: T5, NO derivative of cell free swine Hb (NOswHb) (Sus scrofa, UniProt P01965+P02067); assay: Effect of RSR-13 on Soret absorbance of NO derivative of cell free swine Hb; type: biochemical
T5 construct: Human hemoglobin (hHb) or swine Hb (swHb) was purified from discarded blood samples; from tissue; host or cells: purified in house from discarded swine blood samples
T5 sequence (P01965 whole entry): as the sequence (P01965 whole entry) above
T5 sequence (P02067 2-147 limits assumed): as the sequence (P02067 2-147 limits assumed) above
Description: (§3) Effect of RSR-13 on the absorption spectra in the soret region of the nitrosylated derivatives of cell free Hb from human and swine, and HBOC-1 were recorded at 37° C. using HP Agilant 8453 Spectrophotometer using 1 cm path length cuvette. Solid Na dithionite (2 mg/mL) was added to the Hb to make the fully deoxygenated Hb, followed by addition of solid diethylamine NONOate (1.3 mg/mL) to make the NOhHb or NOswHb, or NOHBOC-1 derivatives. RSR-13 (20 uM-800 uM) were added to 65 ug of the NO derivatives and the spectrum monitored in the soret region at 417 nm.

[5] = biological target: T6, swine whole blood or erythrocyte (erythswHb) (Sus scrofa, UniProt P01965+P02067); assay: Effect of RSR-13 on oxygen affinity of swine whole blood (multiple-point tonometer); type: biochemical
T6 construct: from tissue; host or cells: swine whole blood (hct 30%, 20% or 15%)
Description: as §1, with “RSR-13 (1, 2 or 5 mM) was incubated with blood from swine or human (hct ˜30%) or HBOC-1 (13.4 g/dL) for 30 minutes.” left out

[6] = biological target: T7, human whole blood or erythrocyte (erythhHb) (Homo sapiens, UniProt P68871+P69905); assay: Effect of RSR-13 on oxygen affinity of human whole blood (multiple-point tonometer); type: biochemical; conditions: human blood hct 30%
T7 construct: from tissue; host or cells: human whole blood (hct ~30%)
Description: as §1

HBOC-1 (13.4 g/dL) = biological target: T8, HBOC-1 (13.4 g/dL) (Bos taurus, UniProt P01966+P02070); assay: Effect of RSR-13 on oxygen affinity of HBOC-1 (multiple-point tonometer); type: biochemical, bovine
T8 construct: is a highly purified bovine Hb that is crosslinked with gluteraldehyde; purchased BioPure Inc
T8 sequence (P01966 2-142 limits assumed): as the sequence (P01966 2-142 limits assumed) above
T8 sequence (P02070 whole entry): as the sequence (P02070 whole entry) above
Description: as §1

[7] = biological target: T9, NO derivative of cell free human Hb (NOhHb) (Homo sapiens, UniProt P68871+P69905); assay: Effect of RSR-13 on Soret absorbance of NO derivative of cell free human Hb; type: biochemical
T9 construct: Human hemoglobin (hHb) or swine Hb (swHb) was purified from discarded blood samples; from tissue; host or cells: purified in house from discarded human blood samples
T9 sequence (P69905 2-142 limits assumed): as the sequence (P69905 2-142 limits assumed) above
T9 sequence (P68871 2-147 limits assumed): as the sequence (P68871 2-147 limits assumed) above
Description: as §3

[8] = biological target: T10, NO derivative of HBOC-1 (NOHBOC-1) (Bos taurus, UniProt P01966+P02070); assay: Effect of RSR-13 on Soret absorbance of NO derivative of HBOC-1; type: biochemical, bovine
T10 construct: is a highly purified bovine Hb that is crosslinked with gluteraldehyde; purchased BioPure Inc
T10 sequence (P01966 2-142 limits assumed): as the sequence (P01966 2-142 limits assumed) above
T10 sequence (P02070 whole entry): as the sequence (P02070 whole entry) above
Description: as §3

[9] = Oxygen affinity of HBOC-1 itself, without RSR-13 (multiple-point tonometer); type: biochemical, bovine; conditions: HBOC-1 13.4 g/dL alone, 0 RSR-13
Description: as §1

[10] = Blood/HBOC (50:50), swine blood hct 15%
[11] = Blood/HBOC (50:50), swine blood hct 20%
[12] = Blood/HBOC (75:25), swine blood hct 15%
[13] = Blood/HBOC (75:25), swine blood hct 20%
[14] = swine blood (100%) hct 15%, 2 mM RSR-13
[15] = swine blood (100%) hct 20%, 2 mM RSR-13
[16] = swine blood hct 30%, 1 mM RSR-13
[17] = swine blood hct 30%, 2 mM RSR-13
[18] = swine blood hct 30%, 5 mM RSR-13

- P50 [1, 10]: 74.0 ± 2.1 mmHg
- n50 [1, 10]: 1.5 ± 0.1
- ΔP50 [1, 10]: 21.2 mmHg
- P50 [1, 11]: 68.0 ± 4.2 mmHg
- n50 [1, 11]: 1.8 ± 0.3
- ΔP50 [1, 11]: 20.5 mmHg
- P50 [1, 12]: 75.1 ± 5.6 mmHg
- n50 [1, 12]: 1.7 ± 0.1
- ΔP50 [1, 12]: 27.6 mmHg
- P50 [1, 13]: 61.5 ± 3.6 mmHg
- n50 [1, 13]: 2.1 ± 0.1
- ΔP50 [1, 13]: 18.1 mmHg
- COHb levels [2]: 44.1 ± 0.7%
- COHb levels ([3]; swine blood hct 30% exposed to CO to ~10% COHb (control 10.2)): 8.5 ± 0.3%
- COHb levels ([3]; swine blood hct 30% exposed to CO to ~52% COHb (control 52.4)): 44.2 ± 1.0%
- Percentage (%) decrease in absorbance intensity at 417 nm ([4]; 20 uM RSR-13): 3.3 ± 0.4%
- Percentage (%) decrease in absorbance intensity at 417 nm ([4]; 100 uM RSR-13): 7.9 ± 0.4%
- Percentage (%) decrease in absorbance intensity at 417 nm ([4]; 200 uM RSR-13): 14.9 ± 0.3%
- Percentage (%) decrease in absorbance intensity at 417 nm ([4]; 300 uM RSR-13): 17.1 ± 0.5%
- P50 [5, 14]: 62.3 ± 0.5 mmHg
- n50 [5, 14]: 2.2 ± 0.2
- ΔP50 [5, 14]: 25.0 mmHg
- P50 [5, 15]: 51.3 ± 3.2 mmHg
- n50 [5, 15]: 2.2 ± 0.1
- ΔP50 [5, 15]: 16.8 mmHg
- P50 [5, 16]: 34.5 ± 0.2 mmHg
- n50 [5, 16]: 2.6 ± 0.3
- ΔP50 [5, 16]: 3.9 mmHg
- P50 [5, 17]: 41.5 ± 0.5 mmHg
- n50 [5, 17]: 2.3 ± 0.0
- ΔP50 [5, 17]: 11.3 mmHg
- P50 [5, 18]: 72.1 ± 1.3 mmHg
- n50 [5, 18]: 1.9 ± 0.1
- ΔP50 [5, 18]: 41.5 mmHg
- P50 ([6]; 1 mM RSR-13): 35.1 ± 2.2 mmHg
- n50 ([6]; 1 mM RSR-13): 2.4 ± 0.2
- ΔP50 ([6]; 1 mM RSR-13): 3.3 mmHg
- P50 ([6]; 2 mM RSR-13): 42.0 ± 1.7 mmHg
- n50 ([6]; 2 mM RSR-13): 2.0 ± 0.3
- ΔP50 ([6]; 2 mM RSR-13): 10.2 mmHg
- P50 ([6]; 5 mM RSR-13): 78.0 ± 1.2 mmHg
- n50 ([6]; 5 mM RSR-13): 1.8 ± 0.1
- ΔP50 ([6]; 5 mM RSR-13): 46.2 mmHg
- P50 (HBOC-1 (13.4 g/dL); 2 mM RSR-13): 73.6 ± 3.0 mmHg
- n50 (HBOC-1 (13.4 g/dL); 2 mM RSR-13): 1.1 ± 0.3
- ΔP50 (HBOC-1 (13.4 g/dL); 2 mM RSR-13): 15.1 mmHg
- P50 (HBOC-1 (13.4 g/dL); 5 mM RSR-13): 83.5 ± 3.4 mmHg
- n50 (HBOC-1 (13.4 g/dL); 5 mM RSR-13): 1.1 ± 0.3
- ΔP50 (HBOC-1 (13.4 g/dL); 5 mM RSR-13): 25 mmHg and 25.0 mmHg
- Percentage (%) decrease in absorbance intensity at 417 nm ([7]; 20 uM RSR-13): 3.2 ± 0.4%
- Percentage (%) decrease in absorbance intensity at 417 nm ([7]; 100 uM RSR-13): 8.9 ± 0.3%
- Percentage (%) decrease in absorbance intensity at 417 nm ([7]; 200 uM RSR-13): 13.2 ± 0.3%
- Percentage (%) decrease in absorbance intensity at 417 nm ([7]; 300 uM RSR-13): 16.5 ± 0.4%
- Percentage (%) decrease in absorbance intensity at 417 nm ([8]; 100 uM RSR-13): 4.7 ± 0.2%
- Percentage (%) decrease in absorbance intensity at 417 nm ([8]; 200 uM RSR-13): 6.1 ± 0.3%
- Percentage (%) decrease in absorbance intensity at 417 nm ([8]; 300 uM RSR-13): 7.8 ± 0.5%
- Percentage (%) decrease in absorbance intensity at 417 nm ([8]; 800 uM RSR-13): 15.5 ± 0.5%
Compound: Cc1cc(C)cc(NC(=O)Cc2ccc(OC(C)(C)C(=O)O)cc2)c1 [RSR-13, 2-[4-[2-[(3,5-dimethylphenyl)amino]-2-oxoethyl]phenoxy]-2-methylpropanoic acid]
- increase of the P50 of whole blood (whole blood): 10 Torr

Compound: HBOC-1: Oxyglobin® from BioPure Inc: highly purified bovine Hb that is crosslinked with gluteraldehyde
- P50 [9]: 58.5 mmHg and 58.5 ± 6.9 mmHg
- n50 [9]: 1.2 and 1.2 ± 0.3
